The test is described as follows: Modulation of CFTR F508 deletion/MF mutant in HBE cells assessed as change in short circuit current incubated for 18 to 24 hrs in presence of forskolin and amiloride by voltage-clamp based chamber assay. In kind it is cell-based. The conditions noted are these: Homo sapiens.
Consider `Nc1cc(C(F)(F)F)c2nc1-c1nnc(o1)[C@@](O)(C(F)(F)F)CCCCC[C@@H]1CCCN21`, for which the EC50 is less than 500 nM.

On to `Nc1cc(C(F)(F)F)c2nc1-c1nnc(o1)[C@@](O)(C(F)(F)F)CCCCCC(c1ccccn1)N2` (stereo partly specified), for which the concentration giving a half-maximal response (EC50) was less than 500 nM.

For the compound `Nc1cc(C(F)(F)F)c2nc1-c1nnc(o1)[C@@](O)(C(F)(F)F)CCCCCC1(CCCCC1)N2`, the EC50 is less than 500 nM.

On to `Nc1cc(C(F)(F)F)c2nc1-c1nnc(o1)[C@@](O)(C(F)(F)F)CCCCCC1(CCC1)N2`, for which the EC50 was less than 500 nM. The value for `Nc1cc(Br)c2nc1-c1nnc(o1)[C@@](O)(C(F)(F)F)CCCCC[C@@H]1CCCN21` was less than 500 nM; that for `Nc1cc(S(=O)(=O)c2ccccc2)c2nc1-c1nnc(o1)[C@@](O)(C(F)(F)F)CCCCC[C@@H]1CCCN21` was less than 500 nM.

By EC50 is commonly meant the concentration needed to bring the measured effect to its halfway point.

The record behind these values is ChEMBL document CHEMBL5120953, “Novel Macrocyclic 1,3,4-Oxadiazoles as CFTR Modulators for Treating Cystic Fibrosis” (ACS Med Chem Lett, 2022).
